Reference: patent US12018001B2, “Pyrimidine cyclohexenyl glucocorticoid receptor modulators” (priority 2018, dated 2024)

The compounds below were run against T1, glucocorticoid receptor (Homo sapiens, UniProt P04150) (assay: Hep G2 TAT assay: induction of TAT by dexamethasone in HepG2 cells).
T1 construct: host or cells: HepG2
T1 sequence (P04150 1-777): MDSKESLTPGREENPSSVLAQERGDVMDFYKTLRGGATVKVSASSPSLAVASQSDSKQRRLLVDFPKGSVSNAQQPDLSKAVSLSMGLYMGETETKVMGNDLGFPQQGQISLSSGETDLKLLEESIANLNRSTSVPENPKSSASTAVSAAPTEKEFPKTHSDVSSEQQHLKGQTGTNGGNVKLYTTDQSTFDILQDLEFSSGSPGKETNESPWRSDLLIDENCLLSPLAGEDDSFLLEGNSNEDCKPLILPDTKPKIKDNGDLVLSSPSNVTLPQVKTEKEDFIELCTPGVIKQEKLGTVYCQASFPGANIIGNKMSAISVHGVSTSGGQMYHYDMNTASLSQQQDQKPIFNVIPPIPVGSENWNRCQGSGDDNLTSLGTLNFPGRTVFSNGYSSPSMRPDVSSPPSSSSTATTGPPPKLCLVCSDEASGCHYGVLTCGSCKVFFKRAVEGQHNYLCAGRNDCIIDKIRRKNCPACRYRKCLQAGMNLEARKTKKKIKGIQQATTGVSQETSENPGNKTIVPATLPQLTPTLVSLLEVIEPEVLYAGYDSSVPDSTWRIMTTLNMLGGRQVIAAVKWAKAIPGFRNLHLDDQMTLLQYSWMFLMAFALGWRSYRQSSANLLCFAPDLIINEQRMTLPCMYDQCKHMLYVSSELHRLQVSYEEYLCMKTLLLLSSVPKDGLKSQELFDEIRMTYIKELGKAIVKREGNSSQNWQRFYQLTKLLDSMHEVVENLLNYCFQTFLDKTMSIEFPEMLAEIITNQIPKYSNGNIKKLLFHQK
Type: cell-based
Description: Glucocorticoid mediated activation of TAT occurs by transactivation of glucocorticoid response elements in the TAT promoter by glucocorticoid receptor-agonist complex.
TAT activity was measured as outlined in the literature by A. Ali et al., J. Med. Chem., 2004, 47, 2441-2452.
HepG2 cells were cultured using MEME media supplemented with 10% (v/v) foetal bovine serum; 2 mM L-glutamine and 1% (v/v) NEAA at 37° C., 5%/95% (v/v) CO2/air. The HepG2 cells were counted and adjusted to yield a density of 0.125×10^6 cells/ml in RPMI 1640 without phenol red, 10% (v/v) charcoal stripped FBS, 2 mM L-glutamine and seeded at 25,000 cells/well in 200 μl into 96 well, sterile, tissue culture micro titre plates, and incubated at 37° C., 5% CO2 for 24 hours
Growth media was removed and replaced with assay media {RPMI 1640 without phenol red, 2 mM L-glutamine+10 μM forskolin}. […] Compounds were serially half log diluted in 100% (v/v) dimethylsulphoxide from a 10 mM stock.
HepG2 cells were then lysed with 30 μl of cell lysis buffer containing a protease inhibitor cocktail for 15 minutes at 4° C. 155 μl of substrate mixture was then added containing 5.4 mM Tyrosine sodium salt, 10.8 mM alpha ketoglutarate and 0.06 mM pyridoxal 5′ phosphate in 0.1 M potassium phosphate buffer (pH 7.4). After 2 hours incubation at 37° C. the reaction was terminated by the addition of 15 μl of 10 M aqueous potassium hydroxide solution, and the plates incubated for a further 30 minutes at 37° C. The TAT activity product was measured by absorbance at λ 340 nm.
[compound] and fitting the data to a 4 parameter logistic equation.

SMILES | Ki [µM]
N#Cc1ccc(C2=CC[C@H](c3[nH]c(=O)[nH]c(=O)c3Cc3ccccc3)CC2)c(Cl)c1 (single isomer, unassigned) [Example 39] | 0.069
N#Cc1ccc(C2=CC[C@@H](c3[nH]c(=O)[nH]c(=O)c3Cc3ccccc3)CC2)c(Cl)c1 (single isomer, unassigned) [Example 40] | 0.042
O=c1[nH]c([C@H]2CC=C(c3ccc(Cl)cc3C(F)(F)F)CC2)c(Cc2ccccc2)c(=O)[nH]1 (single isomer, unassigned) [Example 109] | 0.03
O=c1[nH]c([C@@H]2CC=C(c3ccc(Cl)cc3C(F)(F)F)CC2)c(Cc2ccccc2)c(=O)[nH]1 (single isomer, unassigned) [Example 110] | 0.038
O=c1[nH]c(C2CC=C(c3cccc(Cl)c3Cl)CC2)c(Cc2ccccc2)c(=O)[nH]1 (centres unmarked) [Example 2] | 0.099
O=c1[nH]c(C2CC=C(c3ccc(F)cc3)CC2)c(Cc2ccccc2)c(=O)[nH]1 (centres unmarked) [Example 3] | 0.46
O=c1[nH]c(C2CC=C(c3cncs3)CC2)c(Cc2ccccc2)c(=O)[nH]1 (centres unmarked) [Example 4] | 1.3
N#Cc1ccccc1C1=CCC(c2[nH]c(=O)[nH]c(=O)c2Cc2ccccc2)CC1 (centres unmarked) [Example 5] | 0.12
O=c1[nH]c(C2CC=C(c3ccc(Cl)cc3Cl)CC2)c(Cc2ccccc2)c(=O)[nH]1 (centres unmarked) [Example 6] | 0.065
COc1cc(Cl)ccc1C1=CCC(c2[nH]c(=O)[nH]c(=O)c2Cc2ccccc2)CC1 (centres unmarked) [Example 7] | 0.038
O=c1[nH]c(C2CC=C(c3ccccc3Cl)CC2)c(Cc2ccccc2)c(=O)[nH]1 (centres unmarked) [Example 8] | 0.052
O=c1[nH]c(C2CC=C(c3ccc(F)cc3Cl)CC2)c(Cc2ccccc2)c(=O)[nH]1 (centres unmarked) [Example 9] | 0.026
O=c1[nH]c(C2CC=C(c3ccccc3C(F)(F)F)CC2)c(Cc2ccccc2)c(=O)[nH]1 (centres unmarked) [Example 11] | 0.014
COc1ccc(F)cc1C1=CCC(c2[nH]c(=O)[nH]c(=O)c2Cc2ccccc2)CC1 (centres unmarked) [Example 12] | 0.35
Cc1ccccc1C1=CCC(c2[nH]c(=O)[nH]c(=O)c2Cc2ccccc2)CC1 (centres unmarked) [Example 13] | 0.083
CS(=O)(=O)c1ccccc1C1=CCC(c2[nH]c(=O)[nH]c(=O)c2Cc2ccccc2)CC1 (centres unmarked) [Example 15] | 0.52
O=c1[nH]c(C2CC=C(c3cccc(Cl)c3)CC2)c(Cc2ccccc2)c(=O)[nH]1 (centres unmarked) [Example 16] | 0.64
COc1ccc(C2=CCC(c3[nH]c(=O)[nH]c(=O)c3Cc3ccccc3)CC2)c(C(F)(F)F)c1 (centres unmarked) [Example 17] | 0.28
COc1ccccc1C1=CCC(c2[nH]c(=O)[nH]c(=O)c2Cc2ccccc2)CC1 (centres unmarked) [Example 18] | 0.26
O=c1[nH]c(C2CC=C(c3c(Cl)cccc3Cl)CC2)c(Cc2ccccc2)c(=O)[nH]1 (centres unmarked) [Example 19] | 0.032
Cc1ccc(F)cc1C1=CCC(c2[nH]c(=O)[nH]c(=O)c2Cc2ccccc2)CC1 (centres unmarked) [Example 21] | 0.27
Cc1ccc(CO)cc1C1=CCC(c2[nH]c(=O)[nH]c(=O)c2Cc2ccccc2)CC1 (centres unmarked) [Example 22] | 0.33
COc1ccc(C#N)cc1C1=CCC(c2[nH]c(=O)[nH]c(=O)c2Cc2ccccc2)CC1 (centres unmarked) [Example 23] | 0.33
Cc1c(F)cccc1C1=CCC(c2[nH]c(=O)[nH]c(=O)c2Cc2ccccc2)CC1 (centres unmarked) [Example 24] | 0.033
Cc1ncccc1C1=CCC(c2[nH]c(=O)[nH]c(=O)c2Cc2ccccc2)CC1 (centres unmarked) [Example 25] | 0.1
O=c1[nH]c(C2CC=C(c3ccccc3OC(F)(F)F)CC2)c(Cc2ccccc2)c(=O)[nH]1 (centres unmarked) [Example 26] | 0.05
N#Cc1ccc(Cl)c(C2=CCC(c3[nH]c(=O)[nH]c(=O)c3Cc3ccccc3)CC2)c1 (centres unmarked) [Example 27] | 0.21

SMILES | Ki [µM]
O=c1[nH]c(C2CC=C(c3cc(CO)ccc3Cl)CC2)c(Cc2ccccc2)c(=O)[nH]1 (centres unmarked) [Example 28] | 0.15
COc1ccc(C2=CCC(c3[nH]c(=O)[nH]c(=O)c3Cc3ccccc3)CC2)c(Cl)c1 (centres unmarked) [Example 29] | 0.012
Cc1ccncc1C1=CCC(c2[nH]c(=O)[nH]c(=O)c2Cc2ccccc2)CC1 (centres unmarked) [Example 30] | 0.05
Cn1nccc1C1=CCC(c2[nH]c(=O)[nH]c(=O)c2Cc2ccccc2)CC1 (centres unmarked) [Example 31] | 0.12
N#Cc1cccc(C2=CCC(c3[nH]c(=O)[nH]c(=O)c3Cc3ccccc3)CC2)c1 (centres unmarked) [Example 33] | 0.74
O=c1[nH]c(C2CC=C(c3ccc(F)cc3C(F)(F)F)CC2)c(Cc2ccccc2)c(=O)[nH]1 (centres unmarked) [Example 34] | 0.023
O=c1[nH]c(C2CC=C(c3cccc(Cl)c3C(F)(F)F)CC2)c(Cc2ccccc2)c(=O)[nH]1 (centres unmarked) [Example 35] | 0.059
O=c1[nH]c(C2CC=C(c3cccc(C(F)(F)F)c3Cl)CC2)c(Cc2ccccc2)c(=O)[nH]1 (centres unmarked) [Example 36] | 0.11
O=c1[nH]c(C2CC=C(c3ccc(C(F)(F)F)cc3F)CC2)c(Cc2ccccc2)c(=O)[nH]1 (centres unmarked) [Example 37] | 0.14
N#Cc1cc(C(F)(F)F)ccc1C1=CCC(c2[nH]c(=O)[nH]c(=O)c2Cc2ccccc2)CC1 (centres unmarked) [Example 38] | 0.075
CN1CCN(C(=O)c2ccc(C3=CCC(c4[nH]c(=O)[nH]c(=O)c4Cc4ccccc4)CC3)c(Cl)c2)CC1 (centres unmarked) [Example 41, 5-Benzyl-6-(2′-chloro-4′-(4-methylpiperazine-1-carbonyl)-2,3,4,5-tetrahydro-[1,1′-biphenyl]-4-yl)pyrimidine-2,4(1H,3H)-dione] | 0.48
O=C(c1ccc(C2=CCC(c3[nH]c(=O)[nH]c(=O)c3Cc3ccccc3)CC2)c(Cl)c1)N1CCCC1 (centres unmarked) [Example 42, 5-Benzyl-6-(2′-chloro-4′-(pyrrolidine-1-carbonyl)-2,3,4,5-tetrahydro-[1,1′-biphenyl]-4-yl)pyrimidine-2,4(1H,3H)-dione] | 0.033
O=c1[nH]c(C2CC=C(c3cccnc3N3CCCCC3)CC2)c(Cc2ccccc2)c(=O)[nH]1 (centres unmarked) [Example 43, 5-Benzyl-6-(4-(2-(piperidin-1-yl)pyridin-3-yl)cyclohex-3-en-1-yl)pyrimidine-2,4(1H,3H)-dione] | 0.15
O=c1[nH]c(C2CC=C(c3cccnc3N3CCCC3)CC2)c(Cc2ccccc2)c(=O)[nH]1 (centres unmarked) [Example 44] | 0.045
O=c1[nH]c(C2CC=C(c3cccnc3N3CCC(F)(F)CC3)CC2)c(Cc2ccccc2)c(=O)[nH]1 (centres unmarked) [Example 45] | 0.97
CC1(C)CCCN(c2ncccc2C2=CCC(c3[nH]c(=O)[nH]c(=O)c3Cc3ccccc3)CC2)C1 (centres unmarked) [Example 46] | 0.3
C[C@@H]1CCCN(c2ncccc2C2=CCC(c3[nH]c(=O)[nH]c(=O)c3Cc3ccccc3)CC2)C1 (some centres unmarked) [Example 47] | 0.4
C[C@H]1CCCN(c2ncccc2C2=CCC(c3[nH]c(=O)[nH]c(=O)c3Cc3ccccc3)CC2)C1 (some centres unmarked) [Example 48] | 0.13
CO[C@H]1CCCN(c2ncccc2C2=CCC(c3[nH]c(=O)[nH]c(=O)c3Cc3ccccc3)CC2)C1 (some centres unmarked) [Example 49] | 0.28
Cc1ccc(C2=CCC(c3[nH]c(=O)[nH]c(=O)c3Cc3ccccc3)CC2)c(N2CCCC2)n1 (centres unmarked) [Example 50] | 0.014
O=c1[nH]c(C2CC=C(c3cccnc3C(F)(F)F)CC2)c(Cc2cccc(N3CCCC3)n2)c(=O)[nH]1 (centres unmarked) [Example 51, 5-((6-(Pyrrolidin-1-yl)pyridin-2-yl)methyl)-6-(4-(2-(trifluoromethyl)pyridin-3-yl)cyclohex-3-en-1-yl)pyrimidine-2,4(1H,3H)-dione, formic acid] | 0.4
CC(C)Oc1ccc(C2=CCC(c3[nH]c(=O)[nH]c(=O)c3Cc3ccccc3)CC2)c(Cl)c1 (centres unmarked) [Example 52] | 0.568
CCOc1ccc(C2=CCC(c3[nH]c(=O)[nH]c(=O)c3Cc3ccccc3)CC2)c(C(F)(F)F)c1 (centres unmarked) [Example 53] | 0.051
CCn1nccc1C1=CCC(c2[nH]c(=O)[nH]c(=O)c2Cc2ccccc2)CC1 (centres unmarked) [Example 54] | 1.36
CN(C)c1ncc(C2=CCC(c3[nH]c(=O)[nH]c(=O)c3Cc3ccccc3)CC2)cn1 (centres unmarked) [Example 55] | 1.48
Cc1nn(C)cc1C1=CCC(c2[nH]c(=O)[nH]c(=O)c2Cc2ccccc2)CC1 (centres unmarked) [Example 58] | 0.52
